{"source": "paper PMC5694347", "about": "(Clinical cancer research : an official journal of the …, 2015)", "test_system": "patients with relapsed and/or refractory lymphoma or MM", "assay": "Safety: adverse events graded by NCI CTCAE version 3.0", "conditions": "for Patients with serious AEs (SAEs): eight patients", "key": {"[1]": {"conditions": "Schedule B, n=17, high-level term"}}, "note": "Marks after values point to notes of the source that are not given here."}
{"smiles": "NS(=O)(=O)OC[C@@H]1C[C@@H](n2ccc3c(N[C@H]4CCc5ccccc54)ncnc32)C[C@@H]1O", "note": "[pevonedistat]", "values": [{"measurement": "Abdominal discomfort, Grade ≥3", "setting": "Schedule B, n=17", "result": "0 n (%)"}, {"measurement": "Anemia, All grades", "setting": "Schedule B, n=17", "result": "3 (18) n (%)"}, {"measurement": "Anemia, Grade ≥3", "setting": "Schedule B, n=17", "result": "1 (6) n (%)"}, {"measurement": "Any AE, All grades", "setting": "Schedule B, n=17", "result": "17 (100) n (%)"}, {"measurement": "Any AE, Grade ≥3", "setting": "Schedule B, n=17", "result": "12 (71) n (%)"}, {"measurement": "Asthenia, All grades", "setting": "Schedule B, n=17", "result": "3 (18) n (%)"}, {"measurement": "Asthenia, Grade ≥3", "setting": "Schedule B, n=17", "result": "0 n (%)"}, {"measurement": "Back pain, All grades", "setting": "Schedule B, n=17", "result": "4 (24) n (%)"}, {"measurement": "Back pain, Grade ≥3", "setting": "Schedule B, n=17", "result": "0 n (%)"}, {"measurement": "Blood alkaline phosphatase increased, All grades", "setting": "Schedule B, n=17", "result": "1 (6) n (%)"}, {"measurement": "Blood alkaline phosphatase increased, Grade ≥3", "setting": "Schedule B, n=17", "result": "0 n (%)"}, {"measurement": "Blood creatinine increased, All grades", "setting": "Schedule B, n=17", "result": "0 n (%)"}, {"measurement": "Blood creatinine increased, Grade ≥3", "setting": "Schedule B, n=17", "result": "0 n (%)"}, {"measurement": "Chills, All grades", "setting": "Schedule B, n=17", "result": "6 (35) n (%)"}, {"measurement": "Chills, Grade ≥3", "setting": "Schedule B, n=17", "result": "0 n (%)"}, {"measurement": "Constipation, All grades", "setting": "Schedule B, n=17", "result": "5 (29) n (%)"}, {"measurement": "Constipation, Grade ≥3", "setting": "Schedule B, n=17", "result": "0 n (%)"}, {"measurement": "Cough, All grades", "setting": "Schedule B, n=17", "result": "5 (29) n (%)"}, {"measurement": "Cough, Grade ≥3", "setting": "Schedule B, n=17", "result": "0 n (%)"}, {"measurement": "Decreased appetite, All grades", "setting": "Schedule B, n=17", "result": "10 (59) n (%)"}, {"measurement": "Decreased appetite, Grade ≥3", "setting": "Schedule B, n=17", "result": "0 n (%)"}, {"measurement": "Dehydration, All grades", "setting": "Schedule B, n=17", "result": "3 (18) n (%)"}, {"measurement": "Dehydration, Grade ≥3", "setting": "Schedule B, n=17", "result": "1 (6) n (%)"}, {"measurement": "Diarrhea, All grades", "setting": "Schedule B, n=17", "result": "8 (47) n (%)"}, {"measurement": "Diarrhea, Grade ≥3", "setting": "Schedule B, n=17", "result": "0 n (%)"}, {"measurement": "Dizziness, All grades", "setting": "Schedule B, n=17", "result": "8 (47) n (%)"}, {"measurement": "Dizziness, Grade ≥3", "setting": "Schedule B, n=17", "result": "0 n (%)"}, {"measurement": "Dyspepsia, All grades", "setting": "Schedule B, n=17", "result": "3 (18) n (%)"}, {"measurement": "Dyspepsia, Grade ≥3", "setting": "Schedule B, n=17", "result": "0 n (%)"}, {"measurement": "Dyspnea exertional, All grades", "setting": "Schedule B, n=17", "result": "3 (18) n (%)"}, {"measurement": "Dyspnea exertional, Grade ≥3", "setting": "Schedule B, n=17", "result": "0 n (%)"}, {"measurement": "Dyspnea, All grades", "setting": "Schedule B, n=17", "result": "4 (24) n (%)"}, {"measurement": "Dyspnea, Grade ≥3", "setting": "Schedule B, n=17", "result": "1 (6) n (%)"}, {"measurement": "Fatigue, All grades", "setting": "Schedule B, n=17", "result": "12 (71) n (%)"}, {"measurement": "Fatigue, Grade ≥3", "setting": "Schedule B, n=17", "result": "1 (6) n (%)"}, {"measurement": "Headache, All grades", "setting": "Schedule B, n=17", "result": "9 (53) n (%)"}, {"measurement": "Headache, Grade ≥3", "setting": "Schedule B, n=17", "result": "0 n (%)"}, {"measurement": "Hyperbilirubinemia, All grades", "setting": "Schedule B, n=17", "result": "5 (29) n (%)"}, {"measurement": "Hyperbilirubinemia, Grade ≥3", "setting": "Schedule B, n=17", "result": "1 (6) n (%)"}, {"measurement": "Hypercalcemia, All grades", "setting": "Schedule B, n=17", "result": "1 (6) n (%)"}, {"measurement": "Hypercalcemia, Grade ≥3", "setting": "Schedule B, n=17", "result": "0 n (%)"}, {"measurement": "Hyperkalemia, All grades", "setting": "Schedule B, n=17", "result": "0 n (%)"}, {"measurement": "Hyperkalemia, Grade ≥3", "setting": "Schedule B, n=17", "result": "0 n (%)"}, {"measurement": "Hypomagnesemia, All grades", "setting": "Schedule B, n=17", "result": "1 (6) n (%)"}, {"measurement": "Hypomagnesemia, Grade ≥3", "setting": "Schedule B, n=17", "result": "0 n (%)"}, {"measurement": "Hypophosphatemia, All grades", "setting": "Schedule B, n=17", "result": "1 (6) n (%)"}, {"measurement": "Hypophosphatemia, Grade ≥3", "setting": "Schedule B, n=17", "result": "1 (6) n (%)"}, {"measurement": "Insomnia, All grades", "setting": "Schedule B, n=17", "result": "4 (24) n (%)"}, {"measurement": "Insomnia, Grade ≥3", "setting": "Schedule B, n=17", "result": "0 n (%)"}, {"measurement": "Muscle spasms, All grades", "setting": "Schedule B, n=17", "result": "10 (59) n (%)"}, {"measurement": "Muscle spasms, Grade ≥3", "setting": "Schedule B, n=17", "result": "1 (6) n (%)"}, {"measurement": "Myalgia, All grades", "setting": "Schedule B, n=17", "result": "10 (59) n (%)"}, {"measurement": "Myalgia, Grade ≥3", "setting": "Schedule B, n=17", "result": "0 n (%)"}, {"measurement": "Nausea, All grades", "setting": "Schedule B, n=17", "result": "13 (76) n (%)"}, {"measurement": "Nausea, Grade ≥3", "setting": "Schedule B, n=17", "result": "0 n (%)"}, {"measurement": "Neutropenia, All grades", "setting": "Schedule B, n=17", "result": "2 (12) n (%)"}, {"measurement": "Neutropenia, Grade ≥3", "setting": "Schedule B, n=17", "result": "2 (12) n (%)"}, {"measurement": "Pain in extremity, All grades", "setting": "Schedule B, n=17", "result": "5 (29) n (%)"}, {"measurement": "Pain in extremity, Grade ≥3", "setting": "Schedule B, n=17", "result": "0 n (%)"}, {"measurement": "Pain, All grades", "setting": "Schedule B, n=17", "result": "5 (29) n (%)"}, {"measurement": "Pain, Grade ≥3", "setting": "Schedule B, n=17", "result": "1 (6) n (%)"}, {"measurement": "Paresthesia, All grades", "setting": "Schedule B, n=17", "result": "5 (29) n (%)"}, {"measurement": "Paresthesia, Grade ≥3", "setting": "Schedule B, n=17", "result": "0 n (%)"}, {"measurement": "Peripheral edema, All grades", "setting": "Schedule B, n=17", "result": "3 (18) n (%)"}, {"measurement": "Peripheral edema, Grade ≥3", "setting": "Schedule B, n=17", "result": "0 n (%)"}, {"measurement": "Pneumonia, All grades", "setting": "Schedule B, n=17", "result": "3 (18) n (%)"}, {"measurement": "Pneumonia, Grade ≥3", "setting": "Schedule B, n=17", "result": "2 (12) n (%)"}, {"measurement": "Productive cough, All grades", "setting": "Schedule B, n=17", "result": "3 (18) n (%)"}, {"measurement": "Productive cough, Grade ≥3", "setting": "Schedule B, n=17", "result": "0 n (%)"}, {"measurement": "Pyrexia, All grades", "setting": "Schedule B, n=17", "result": "8 (47) n (%)"}, {"measurement": "Pyrexia, Grade ≥3", "setting": "Schedule B, n=17", "result": "1 (6) n (%)"}, {"measurement": "Sinus tachycardia, All grades", "setting": "Schedule B, n=17", "result": "3 (18) n (%)"}, {"measurement": "Sinus tachycardia, Grade ≥3", "setting": "Schedule B, n=17", "result": "0 n (%)"}, {"measurement": "Thrombocytopenia, All grades", "setting": "Schedule B, n=17", "result": "3 (18) n (%)"}, {"measurement": "Upper respiratory tract infection, All grades", "setting": "Schedule B, n=17", "result": "3 (18) n (%)"}, {"measurement": "Upper respiratory tract infection, Grade ≥3", "setting": "Schedule B, n=17", "result": "1 (6) n (%)"}, {"measurement": "Vision blurred, All grades", "setting": "Schedule B, n=17", "result": "0 n (%)"}, {"measurement": "Vision blurred, Grade ≥3", "setting": "Schedule B, n=17", "result": "0 n (%)"}, {"measurement": "Vomiting, All grades", "setting": "Schedule B, n=17", "result": "10 (59) n (%)"}, {"measurement": "Vomiting, Grade ≥3", "setting": "Schedule B, n=17", "result": "0 n (%)"}, {"measurement": "Weight decreased, All grades", "setting": "Schedule B, n=17", "result": "3 (18) n (%)"}, {"measurement": "Weight decreased, Grade ≥3", "setting": "Schedule B, n=17", "result": "0 n (%)"}, {"measurement": "Thrombocytopenia, Grade ≥3", "setting": "Schedule B, n=17, 1 DLT", "result": "1 (6) ^a n (%)"}, {"measurement": "Peripheral neuropathies NEC, All grades", "setting": "[1]", "result": "2 (12) n (%)"}, {"measurement": "Peripheral neuropathies NEC, Grade ≥3", "setting": "[1]", "result": "0 n (%)"}, {"measurement": "Treatment-related deaths", "setting": "both schedules", "result": "no treatment-related deaths"}, {"measurement": "Peripheral neuropathy rate", "setting": "overall, both schedules", "result": 11, "unit": "%"}, {"measurement": "Grade ≥3 anemia", "setting": "schedule A", "result": 19, "unit": "%"}, {"measurement": "Patients who discontinued due to occurrence of an AE", "setting": "schedule A", "result": 2, "unit": "n"}, {"measurement": "Patients with SAEs considered related to pevonedistat", "setting": "schedule A", "result": "four"}, {"measurement": "Patients with serious AEs (SAEs)", "setting": "schedule A", "result": 30, "unit": "%"}, {"measurement": "Grade ≥3 neutropenia", "setting": "schedule B", "result": 12, "unit": "%"}, {"measurement": "Grade ≥3 pneumonia", "setting": "schedule B", "result": 12, "unit": "%"}, {"measurement": "Patients who discontinued due to occurrence of an AE", "setting": "schedule B", "result": 1, "unit": "n"}, {"measurement": "Patients with serious AEs (SAEs)", "setting": "schedule B", "result": 47, "unit": "%"}]}
